# Reference: patent EP3818828A1 (priority 2019, dated 2021)
# How the values were obtained:
# [1] = test system: Phytophthora infestans; assay: microbe, parasite or virus in culture; assay type: cell-based; conditions: for EC50: median inhibition concentration
# [2] = test system: Leveillula taurica; assay: In-vivo greenhouse control of pepper powdery mildew
# Procedure: 5.61 g of 3-(3',4'-methylenedioxy phenyl)-piperidine acrylate was weighed and dissolved in 25 g of absolute ethyl alcohol, then 6 g of emulsifier 0203B was added, and mixed uniformly with stirring to get 14% of 3-(3',4'-methylenedioxy phenyl)-piperidine acrylate EC.
# Pepper seedling (Variety: Bell pepper) was carried out in a greenhouse, and the seedlings were transplanted into pots, 3 for each pot. Sick leaves of powdery mildew (Leveillula taurica) were harvested form peppers (Longjiao No. 2) in a solar greenhouse in Jingyuan County, Baiyin City, and formulated into a spore suspension of powdery mildew. Both sides of the pepper leaves were sprayed evenly with a small hand-held sprayer and inoculated. The first application was started at the early onset of powdery mildew. 14% of 3-(3',4'-methylenedioxy phenyl)-piperidine acrylate EC was diluted at four concentrations of 1.00, 0.667, 0.50 and 0.40 mg/mL (active ingredients); the control agent, 12.5% of myclobutanil EC, was diluted at a concentration of 0.063 mg/mL (active ingredients); additionally clear water was used as the control. The instrument for application is a small hand-held sprayer. Both sides of the leaves were sprayed evenly so that the leaves were wetted by the liquor without loss. Applications were conducted every 7 days consecutively for 3 times. 10 days after the third application, the disease extent of powdery mildew in the upper, middle and lower 3 leaves of each plant was investigated, to calculate the disease index and the control effect.
smiles,measurement,setting,value
"O=C(/C=C/c1ccc2c(c1)OCO2)N1CCCCC1 [3-(3',4'-methylenedioxyphenyl)-piperidine acrylate]",Relative Toxicity (Compared to Chlorothalonil),[1]; EC50 of chlorothalonil / EC50 of agent,1.23
same,Relative Toxicity (Compared to Procymidone),[1]; EC50 of procymidone / EC50 of agent,8.36
same,EC50,[1],90 µg/mL
same,EC50,[1]; listed as 66#,93 µg/mL
same,Control Effect,[2]; 0.50 mg/mL,75.56%
same,Control Effect,[2]; 0.667 mg/mL,84.56%
same,Control Effect,[2]; 1.00 mg/mL,100%
